Molecular target: T1, AKR7A2 (Homo sapiens, UniProt O43488)
T1 construct: hORFeome ORF cloned EcoRI/XhoI in pET-6xHis-SUMO; E. coli Rosetta; cobalt purified, His-SUMO tag cleaved with Ulp1, FPLC; dimer in solution
Assay: NADPH-dependent SSA reduction, absorbance plate assay
Format: biochemical
Settings: 0.5 mM NADPH, sodium phosphate pH 8.0, 37 °C; SSA 0.50-3.5 mM; only kcat/KM printed

T1 sequence (O43488 whole entry): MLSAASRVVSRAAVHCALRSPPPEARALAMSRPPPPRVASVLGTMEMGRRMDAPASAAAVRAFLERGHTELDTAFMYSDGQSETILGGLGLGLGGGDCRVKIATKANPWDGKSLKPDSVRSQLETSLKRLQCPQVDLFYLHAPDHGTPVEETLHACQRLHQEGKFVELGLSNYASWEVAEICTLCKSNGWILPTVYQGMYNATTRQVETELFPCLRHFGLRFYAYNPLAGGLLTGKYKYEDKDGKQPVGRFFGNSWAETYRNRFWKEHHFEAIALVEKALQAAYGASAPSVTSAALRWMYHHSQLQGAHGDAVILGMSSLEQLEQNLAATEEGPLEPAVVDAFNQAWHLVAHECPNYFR

Q: Which “NADPH-dependent SSA reduction, absorbance plate assay” value does the source give for `O=CCCC(=O)O` [succinic semialdehyde] here?
A: The value was “we purified recombinant WT and mutant AKR7A2 protein to test for changes in NADPH-dependent turnover”.
